Laboratory results reported in US7649002B2, “(3,5-dimethylpiperidin-1yl)(4-phenylpyrrolidin-3-yl)methanone derivatives as MCR4 agonists” (Pfizer Inc, priority 2004, dated 2010).

Molecular target: T1, human MCR5 receptor (Homo sapiens, UniProt P33032)
T1 construct: expressed in transfected cells
Test: MCR5 standard functional assay (Protocol D): CHO-K1-MC5R-CRE-β-lactamase reporter
Type: cell-based
Conditions: for EC50: Protocol D
Text: These cell lines were engineered using protocols akin to those outlined by Zaccolo et al (Zaccolo, M., (2000) Nature, 2(1); 25-29). Compound-induced activation of the MCR5 or MCR4 receptors in these two cell lines stimulated the production, and intracellular accumulation, of the enzyme β-lactamase. The quantity of β-lactamase enzyme produced was directly proportional to the degree to which the test compound activated the MCR5 or MCR4 receptors present on these cells and was quantified using the P-lactamase gene reporter analysis kit that is commercially available from Invitrogen Life Technologies. An in-depth description of this technology and assay protocols are available from the Invitrogen web site (www.invitrogen.com). The protocol listed below provides a summary of that assay methodology. The quantity of β-lactamase enzyme produced by compound-induced activation of the MCR5 or MCR4 receptors expressed in these cell lines was quantified using a LjI Biosystems Analyst™ HT 96.384 plate reader set to excite at a wave length of 405 nm, and measure the energy emitted at wave lengths of 450 nm and 530 nm. Cellular responses were quantified by dividing the measured energy emitted at a wavelength of 450 nm by the measured energy emitted at a wavelength of 530 nm. […] CCF4-AM was dissolved in 100% DMSO to give a final solution concentration of 1 mM. This solution was termed Solution A. Probenecid was dissolved in 200 mM NaOH to give a final solution concentration of 200 mM. This solution was termed Solution D. Composition of the β-lactamase assay dye solution: for 1072 μL of assay dye solution combine: 12 μL of Solution A, 60 μL of Solution B, 925 μL of Solution C and 75 μL of Solution D. […] Cells were grown in T225 vent cap flasks containing 50 ml of growth medium and maintained in a cell incubator at a temperature of 37° C. and in an environment containing 5% CO2. The composition of the growth medium for the CHO-K1-MC5R-CRE-β-lactamase was 90% v/v DMEM supplemented with; Glutamax-1, 25 mM HEPES, 10% v/v foetal calf serum (FCS), 1 mM sodium pyruvate, 0.1 mM non essential amino acids and 800 μg/ml genetic in. For the CHO-K1-MC4R-CRE-β-lactamase this growth media was further supplemented with […] Zeocin. Cells were harvested when they reached 80-90% confluency by first removing the existing growth medium and then washing with PBS that had been pre-warmed to a temperature of 37° C. This PBS was then removed and 5 ml of cell dissociation fluid added to the flask. These cells were incubated for 5 minutes in a cell incubator set at a temperature of 37° C. and in an environment containing 5% CO2 to detach the cells. When cells were detached, pre-warmed growth media was added, the cells re-suspended and mixed gently to achieve a single cell suspension by pipetting. This cell suspension was then used for experimentation, or transferred into a new T225 flask to perpetuate the cell culture. On the first day of the assay cells were harvested as described above. […] For each assay the cell plates were then retuned to a cell incubator maintained at a temperature of 37° C. and in an environment containing 5% CO2 overnight before performing the assay on the second assay day. […] For the MCR4 improved functional assay methodology the solution of cyclohexamide was not added. Subsequently, 10 μL of the test compound solution was transferred to the assay plate. […] After this incubation period the plate was removed from the incubator, 10 μL of the […] assay dye solution was added to each well and then the plate returned to the cell incubator.

T1 sequence (P33032 whole entry): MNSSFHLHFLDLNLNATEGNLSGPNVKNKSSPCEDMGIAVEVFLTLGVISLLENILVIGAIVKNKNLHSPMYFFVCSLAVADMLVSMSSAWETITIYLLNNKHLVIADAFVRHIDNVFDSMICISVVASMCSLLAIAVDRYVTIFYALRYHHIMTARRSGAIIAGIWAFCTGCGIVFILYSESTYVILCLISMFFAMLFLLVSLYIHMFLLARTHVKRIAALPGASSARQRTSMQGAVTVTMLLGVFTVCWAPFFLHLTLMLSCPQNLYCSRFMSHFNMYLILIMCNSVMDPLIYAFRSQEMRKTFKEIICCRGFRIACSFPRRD

| Selectivity MCR5/MCR4 (Table 5, MCR4 by Protocol C) | EC50 (Table 5) [µM] | Selectivity MCR5/MCR4 (Table 6, MCR4 by Protocol E) | EC50 (Table 6) [µM] | SMILES |
| --- | --- | --- | --- | --- |
| 268 | 6.71 | 285 |  | C[C@@H]1CN(C(=O)[C@@H]2CN(C(C)(C)C)C[C@H]2c2ccc(F)cc2F)C[C@H](C)[C@@]1(O)c1ccccc1 [Example 1, (3R,4R,5S)-1-{[(3S,4R)-1-tert-Butyl-4-(24-difluorophenyl)pyrrolidin-3-yl]carbonyl}-3,5-dimethyl-4-phenylpiperidin-4-ol] |
|  |  | 285 | 2.74 | C[C@@H]1CN(C(=O)[C@@H]2CN(C(C)(C)C)C[C@H]2c2ccc(F)cc2F)C[C@H](C)[C@@]1(O)c1ccccc1.Cl [Example 5, (3R,4R,5S)-1-{[(3S,4R)-1-tert-Butyl-4-(2,4-difluorophenyl)pyrrolidin-3-yl]carbonyl}-3,5-dimethyl-4-phenylpiperidin-4-ol hydrochloride] |
|  |  | 267 | 20 | C[C@@H]1CN(C(=O)[C@@H]2CNC[C@H]2c2ccc(F)cc2F)C[C@H](C)[C@@]1(O)c1ccc(F)cc1.Cl [Example 12, (3R,4R,5S)-1-{[(3S,4R)-4-(2,4-difluorophenyl)pyrrolidin-3-yl]carbonyl}-4-(4-fluorophenyl)-3,5-dimethylpiperidin-4-ol hydrochloride] |
|  |  | 624 | 16.9 | C[C@@H]1CN(C(=O)[C@@H]2CN(C(C)(C)C)C[C@H]2c2ccc(F)cc2F)C[C@H](C)[C@@]1(O)c1ccc(Cl)cc1.Cl [Example 13, (3R,4R,5S)-1-{[(3S,4R)-1-tert-butyl-4-(2,4-difluorophenyl)pyrrolidin-3-yl]carbonyl}-4-(4-chlorophenyl)-3,5-dimethylpiperidin-4-ol hydrochloride] |
|  |  | 266 | 0.956 | C[C@@H]1CN(C(=O)[C@@H]2CN(c3ccccn3)C[C@H]2c2ccc(F)cc2F)C[C@H](C)[C@@]1(O)c1ccccc1.Cl [Example 31, (3R,4R,5S)-1-{[(3S,4R)-4-(2,4-difluorophenyl)-1-pyridin-2-ylpyrrolidin-3-yl]carbonyl}-3,5-dimethyl-4-phenylpiperidin-4-ol hydrochloride] |
|  |  | 13,333 | 20 | C[C@@H]1CN(C(=O)[C@@H]2CN(c3cccnn3)C[C@H]2c2ccc(F)cc2F)C[C@H](C)[C@@]1(O)c1ccccc1.Cl [Example 35, (3R,4R,5S)-1-{[(3S,4R)-4-(2,4-difluorophenyl)-1-pyridazin-3-ylpyrrolidin-3-yl]carbonyl}-3,5-dimethyl-4-phenylpiperidin-4-ol hydrochloride] |

| SMILES | Selectivity MCR5/MCR4 (Table 5, MCR4 by Protocol C) | EC50 (Table 5) [µM] | Selectivity MCR5/MCR4 (Table 6, MCR4 by Protocol E) | EC50 (Table 6) [µM] |
| --- | --- | --- | --- | --- |
| CC(C)N1C[C@@H](C(=O)N2C[C@@H](C)[C@](O)(c3ccccc3)[C@@H](C)C2)[C@H](c2ccc(F)cc2F)C1.Cl [Example 6, (3R,4R,5S)-1-{[(3S,4R)-4-(2,4-Difluorophenyl)-1-isopropylpyrrolidin-3-yl]carbonyl}-3,5-dimethyl-4-phenylpiperidin-4-ol hydrochloride] |  |  | 83 | 1.59 |
